Like-named read-outs stand apart in the source and are kept apart here.

The source of these data is patent US12060349B2, “Glucosylceramide synthase inhibitors” (Genzyme Corporation, priority 2012, dated 2024).

Assay [1] concerns GM3 expression on the cell surface, B16 mouse melanoma cells. Description: cell based phenotypic assay, cell surface GM3 by antibody mediated immunofluorescence, B16 (GM3 B16 IC50). The conditions noted are these: Mus musculus, 50% inhibition of GM3 expression on the cell surface. The gist of the method:
(§1)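 B16 mouse and C32 human melanoma cells; cell-surface GM3 measured by antibody-mediated immunofluorescence, giving IC50.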

Assay [2] concerns GM3 expression on the cell surface, C32 human melanoma cells. Description: cell based phenotypic assay, cell surface GM3 by antibody mediated immunofluorescence, C32 (GM3 C32 IC50). Particulars: Homo sapiens, 50% inhibition of GM3 expression on the cell surface. The essentials:
as §1

For assay [3], the target named is T1, glucosylceramide synthase (Homo sapiens, UniProt Q16739).
T1 construct: Microsomes were isolated from A375 human melanoma cells; endogenous in cells; host or cells: A375 human melanoma cells (microsomal fraction, 100,000 g pellet)
T1 sequence (Q16739 1-394): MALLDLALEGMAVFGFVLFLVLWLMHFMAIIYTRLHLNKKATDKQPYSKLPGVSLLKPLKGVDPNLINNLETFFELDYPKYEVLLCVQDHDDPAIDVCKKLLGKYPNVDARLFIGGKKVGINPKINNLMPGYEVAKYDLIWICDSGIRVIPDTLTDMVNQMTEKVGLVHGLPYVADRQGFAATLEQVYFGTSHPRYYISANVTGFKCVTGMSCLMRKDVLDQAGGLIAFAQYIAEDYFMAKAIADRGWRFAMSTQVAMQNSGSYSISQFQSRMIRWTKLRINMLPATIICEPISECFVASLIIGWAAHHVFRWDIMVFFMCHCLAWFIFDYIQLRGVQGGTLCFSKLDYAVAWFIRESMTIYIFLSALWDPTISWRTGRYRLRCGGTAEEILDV
Description: microsomal assay measuring conversion of ceramide to glucosylceramide by HPLC (GCS IC50). The assay is classed as biochemical. The conditions noted are these: concentration causing 50% inhibition of glucosylceramide synthase activity. The essentials:
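IC50 is the compound concentration halving glucosylceramide synthase activity. Activity was measured in microsomes, with HPLC quantifying glucosylceramide formed from ceramide.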

Another assay relates to B16 mouse melanoma cells. Description: cell viability in the B16 cell-based assay (Viability, B16 IC50). Particulars: Mus musculus. The essentials: (§2)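 Cell death was scored within the cell-based GM3 experiment for each line. The viability value is the concentration producing 50% death, and numbers exceeding 10 signify no cytotoxicity.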
In the next assay the test system is C32 human melanoma cells. Description: cell viability in the C32 cell-based assay (Viability, C32 IC50). Particulars: Homo sapiens, concentration causing 50% cell death, values greater than 10 represent a lack of cell death. The gist of the method: as §2
The mark [4] stands for this setting: B16 mouse melanoma cells, read-out: GM3 B16 IC50.
The mark [5] stands for this setting: C32 human melanoma cells, read-out: GM3 C32 IC50.
[6] abbreviates: B16, B16 cells, concentration causing 50% cell death, values greater than 10 represent a lack of cell death, read-out: Viability, B16 IC50.
[7] abbreviates: C32, C32 cells, read-out: Viability, C32 IC50.

For the compound `COCc1ccc(-c2ncnc(N3CCN(C(=O)NC4(C)CCN5CCC4CC5)CC3C(C)C)n2)cc1` (stereo not drawn) [Example 151, 3-Isopropyl-4-(4-(4-(methoxymethyl)phenyl)-1,3,5-triazin-2-yl)-N-(4-methyl-1-azabicyclo[3.2.2]nonan-4-yl)piperazine-1-carboxamide], the concentration for half-maximal inhibition (IC50) in assay [1] (setting [4]) turned out to be 1820 nM; in assay [2] (setting [5]), 95.6 nM; in assay [3], 324 nM; in the assay on B16 mouse melanoma cells (setting [6]) it was 9840 nM; in the assay with C32 human melanoma cells (setting [7]), 1000 nM.
With `C[C@@H]1CN(C(=O)NC2(C)CCN3CCC2CC3)CCN1c1ncc(Oc2ccc(F)cc2)cn1` (stereo partly drawn) [Example 152, (3R)-4-(5-(4-Fluorophenoxy)pyrimidin-2-yl)-3-methyl-N-(4-methyl-1-azabicyclo[3.2.2]nonan-4-yl)piperazine-1-carboxamide], the IC50 in assay [1] (setting [4]) is 76.3 nM; in assay [2] (setting [5]), 0.439 nM; in assay [3], 2.88 nM; with B16 mouse melanoma cells (setting [6]), 6770 nM; in the assay on C32 human melanoma cells (setting [7]), 316 nM.
Regarding `C#CC1CN(C(=O)NC2(C)CCN3CCC2CC3)CCN1c1nccc(-c2ccc(COC)cc2)n1` (stereo not drawn) [Example 153, 3-Ethynyl-4-(4-(4-(methoxymethyl)phenyl)pyrimidin-2-yl)-N-(4-methyl-1-azabicyclo[3.2.2]nonan-4-yl)piperazine-1-carboxamide], the 50% inhibitory concentration (IC50) was 2640 nM in assay [1] (setting [4]); 11.7 nM in assay [2] (setting [5]); 53.4 nM in assay [3]; at least 10000 nM with B16 mouse melanoma cells (setting [6]); 1000 nM in the assay on C32 human melanoma cells (setting [7]).
As to `CC1CN(C(=O)OC2CCN3CCC2CC3)CCN1c1nccc(-c2ccccc2)n1` (stereo not drawn) [Example 154, 1-Azabicyclo[3.2.2]nonan-4-yl 3-methyl-4-(4-phenylpyrimidin-2-yl)piperazine-1-carboxylate], the IC50 in assay [1] (setting [4]) amounted to 1930 nM; in assay [2] (setting [5]) it was 16.5 nM; in assay [3] it was 57 nM; with B16 mouse melanoma cells (setting [6]), 2840 nM; in the assay on C32 human melanoma cells (setting [7]), 1000 nM.
`COCCOc1ccc(-c2ccc(C(C)(C)NC(=O)OC3CN4CCC3CC4)cc2)cc1` (stereo not drawn) [Example 155, Quinuclidin-3-yl (2-(4′-(2-methoxyethoxy)-[1,1′-biphenyl]-4-yl)propan-2-yl)carbamate]: the IC50 came out at 38.6 nM in assay [1] (read-out: GM3 B16 IC50, B16 mouse melanoma cells); 0.657 nM in assay [2] (read-out: GM3 C32 IC50, C32 human melanoma cells); 3.48 nM in assay [3]; 1000 nM in the assay on B16 mouse melanoma cells (B16, read-out: Viability, B16 IC50); 215 nM in the assay on C32 human melanoma cells (C32, read-out: Viability, C32 IC50, C32 cells).
Consider `COCCOc1ccc(-c2ccc(C(C)(C)NC(=O)N[C@@]3(C)CN4CCC3CC4)cc2)cc1` [Example 157, (R)-1-(2-(4′-(2-Methoxyethoxy)-[1,1′-biphenyl]-4-yl)propan-2-yl)-3-(3-methylquinuclidin-3-yl)urea], for which the IC50 in assay [1] (setting [4]) is 538 nM; in assay [2] (setting [5]), 42 nM; in assay [3] it was 228 nM; in the assay with B16 mouse melanoma cells (setting [6]), 3160 nM; in the assay with C32 human melanoma cells (setting [7]), 3160 nM.
For `COCCOc1ccc(-c2ccc(C(C)(C)NC(=O)N[C@]3(C)CN4CCC3CC4)cc2)cc1` [Example 158, (S)-1-(2-(4′-(2-Methoxyethoxy)-[1,1′-biphenyl]-4-yl)propan-2-yl)-3-(3-methylquinuclidin-3-yl)urea], the half-inhibitory concentration (IC50) in assay [1] (setting [4]) stood at 7.62 nM; in assay [2] (setting [5]), 0.529 nM; in assay [3] it was 2.85 nM; in the assay with B16 mouse melanoma cells (setting [6]), 631 nM; in the assay with C32 human melanoma cells (setting [7]), 631 nM.
Consider `CCC1(NC(=O)NC(C)(C)c2ccc(-c3ccc(OCCOC)cc3)cc2)CN2CCC1CC2` (stereo not drawn) [Example 159, 1-(3-Ethylquinuclidin-3-yl)-3-(2-(4′-(2-methoxyethoxy)-[1,1′-biphenyl]-4-yl)propan-2-yl)urea], for which the IC50 stood at 4.46 nM in assay [1] (setting [4]); 0.636 nM in assay [2] (setting [5]); 5.6 nM in assay [3]; 1000 nM in the assay with B16 mouse melanoma cells (setting [6]); 1000 nM in the assay with C32 human melanoma cells (setting [7]).
Consider `COCCOc1ccc(-c2ccc(C(C)(C)NC(=O)NC3(C)CCN4CCC3CC4)cc2)cc1` (stereo not drawn) [Example 160, 1-(2-(4′-(2-Methoxyethoxy)-[1,1′-biphenyl]-4-yl)propan-2-yl)-3-(4-methyl-1-azabicyclo[3.2.2]nonan-4-yl)urea], for which the IC50 was determined as 1.9 nM in assay [1] (setting [4]); 0.544 nM in assay [2] (setting [5]); 3.91 nM in assay [3]; 1000 nM in the assay on B16 mouse melanoma cells (setting [6]); 1000 nM with C32 human melanoma cells (setting [7]).
